Results on four substances are retold here after patent US20250082759A1, “COMPOSITIONS COMPRISING THERAPEUTIC NUCLEIC ACID AND TARGETED SAPONIN FOR THE TREATMENT OF MUSCLE-WASTING DISORDERS” (SAPREME TECHNOLOGIES B.V., priority 2021, published 2025).

One series relates to dystrophin exon 23. Put plainly: Exon 23 skip analysis in differentiated murine C2C12 myotubes. It is filed as cell-based, mouse. The procedure: Murine myoblast cell line C2C12 was maintained in 10% FBS DMEM medium+Pen/Strep and plated at 240,000 cells per well (cpw) in 24-well plates or 40,000 cpw in 96-well plates (wp) in maintenance medium (10% FBS in DMEM medium+Pen/Strep) and incubated at 37° C. with 5% CO2. Twenty-four hours after seeding, cells were switched to differentiation media (2% horse serum in DMEM) and incubated for 3 days before refreshing the medium. After another 24 hours, medium was refreshed again and compounds were added and incubated for 48 hours. Differentiation medium was then refreshed (without compounds), and cells were incubated for another 24 hours. At 72 hours total post treatment, cells in the 24-wp were harvested for exon skip analysis and the cell viability was assessed on the 96-wp.
For analysis of skip from murine cell lines, cells were harvested and RNA was isolated using 0.5 ml TRIzol™ Reagent (Thermo Scientific) per sample, according to the manufacturer's instruction. For analysis of tissue, 30-50 mg frozen tissue was first cut into smaller pieces and mRNA was isolated using TRIzol™ Reagent (Thermo Scientific) and a TissueLyser LT (Qiagen) according to the manufacturer's instruction. For cDNA synthesis per sample, to 0.5 μg RNA in 5.0 μl, 10.0 μl ddH2O, 4 μl 5× iScript™ Reaction Mix and 1.0 μl iScript™ Reverse Transcriptase (BioRad) were added to yield a total volume of 20.0 μl per reaction. The RT-PCR was run for 5 min at 25° C., 60 min at 46° C., and 2 min at 95° C. For skip analysis, SapphireAmp™ Fast PCR Master Mix (TakaraBio) was used according to the manufacturer's instructions. To this end, 9.7 μl RNAse free water, 12.5 μl of 2× Master Mix, 0.4 μl of 10 μM FW primer 5′-[…]-3′ (SEQ ID NO: 14) and 0.4 μl of […] RV primer 5′-[…]-3′ (SEQ ID NO: 15) were added to a PCR tube, mixed, after which 2 μl cDNA (50 ng) was added, to yield a total volume of 25 μl. These samples were subjected to a PCR run of 1 min at 94° C., 35 cycles of 5 sec at 98° C., 5 sec at 55° C., 5 sec at 72° C., followed by 1 min at 72° C. Samples were mixed with 2 μl 6× loading buffer, then 16 μl were loaded onto an 2% agarose gel and ran for 60-90 min at 80 V. Gels were imaged and band intensities were quantified with a ChemiDoc™ XRS+System and Image Lab™ Software (BioRad). The expected non-skipped product has a size of 788 bp, and the skip product of 575 bp, respectively.
Murine myoblast cell line C2C12 was maintained in 10% FBS DMEM medium+Pen/Strep and plated at 240,000 cells per well (cpw) in 24-well plates, or at 40,000 cpw in 96-well plates (wp), in maintenance medium (10% FBS in DMEM medium+Pen/Strep) and incubated at 37° C. with 5% CO2. Twenty-four hours after seeding, cells were switched to differentiation media (2% horse serum in DMEM) and incubated for 3 days before refreshing the medium. After another 24 hours, medium was refreshed again and compounds were added and incubated for 48 hours. At 48 hours total post treatment, cells in the 24-wp were harvested for exon skip analysis and the cell viability was assessed on the 96-wp.
Performed as described above in the Methods (as performed in Examples 1-5).

Another series concerns dystrophin exon 51. The series can be described thus: Exon 51 skip analysis in differentiated human myotubes from a non-DMD (healthy) donor (KM155). Type of series: cell-based. The settings on record: for % exon skipping: 72 hrs. The procedure: Immortalized human myoblasts from non-DMD donors (KM155) and myoblasts from a DMD-affected donor (DM8036) were cultured in Skeletal Muscle Cell Growth Medium (PromoCell, Germany) with supplementary pack according to manufacturer's instructions, further supplemented with 15% fetal bovine serum (Gibco, United Kingdom), and 0.5% gentamicin (Sigma-Aldrich, USA). For differentiation, cells were seeded on a 0.5% gelatine-coated surface, and at ˜70-80% confluence, the proliferation medium was replaced by DMEM (Gibco) supplemented with 2% FBS (Gibco), 2% GlutaMAX, and 1% glucose (Sigma-Aldrich) and 0.5% gentamycin. Treatments were started after at least 3 days up to a maximum of 5 days of differentiation (based on the presence of differentiated myotubes).
RNA was isolated with the TRIsure Isolation Reagent (Bioline) and chloroform extraction; isopropanol precipitation of RNA from the aqueous phase was performed as known to someone skilled in the art. For cDNA synthesis, 1000 ng of total RNA was used and diluted in an appropriate amount of RNase-free water to yield 8 μl RNA dilution. The priming premixed contained 1 μl dNTP mix (10 mM each) and 1 μl specific reverse primer (for KM155, h53R 5′-[…]-3′ [SEQ ID NO: 5]; for DM8036, h55R 5′-[…]-3′ [SEQ ID NO: 6]). This mixture was heated for 5 min at 70° C., then chilled on ice for at least 1 min. A reaction mixture was prepared containing 0.5 μl rRNasin (Promega), 4.0 μl RT buffer, 1.0 μl Tetro RT (Bioline), and 4.5 μl RNase-free water, and was added to the chilled mixture to yield a total volume of 20 μl per reaction. The RT-PCR was run for 60 min at 42° C., then 5 min at 85° C., and chilled on ice. For skip analysis, a nested PCR approach was followed. To this end, in the first PCR, 3 μl cDNA were added to a mix of 2.5 μl 10× SuperTaq PCR buffer, 0.5 μl dNTP mix (10 mM each), 0.125 μl Taq DNA polymerase TAQ-RO (5 U/μl; Roche) 16.875 μl RNase-free water and 1 μl (10 pmol/μl) of each primer flanking the targeted exons were used: for KM155, h48F 5′-[…]-3′ [SEQ ID NO: 7] and h53R 5′-[…]-3′ [SEQ NO: ID 5]; for DM8036, h47F2 5′-[…]-3′ [SEQ ID NO: 8] and h54R 5′-[…]-3′ [SEQ ID NO: 9]. These samples were subjected to a PCR run of 5 min at 94° C., then 25 cycles with 40 sec at 94° C., 40 sec at 60° C., 180 sec at 72° C., after which for 7 min at 72° C. For the second PCR, 1.5 μl PCR1 sample were added to a mix of 5 μl 10× SuperTaq PCR buffer, 1 μl dNTP mix (10 mM each), 0.25 μl Taq DNA polymerase TAQ-RO (5 U/μl; Roche), 38.25 μl RNase-free water and 2 μl (10 pmol/μl) of each primer flanking the targeted exons were used: for KM155, h49F 5′-[…]-3′ [SEQ ID NO: 10] and h52R2 5′-[…]-3′ [SEQ ID NO: 11]; for DM8036, h47F 5′-[…]-3′ [SEQ ID NO: 12] and h53R 5′-[…]-3′ [SEQ ID NO: 13]. These samples were subjected to a PCR run of 5 min at 94° C., then 32 cycles with 40 sec at 94° C., 40 sec at 60° C., 60 sec at 72° C., after which for 7 min at 72° C. Exon skipping levels were quantified with the Femto Pulse System using the Ultra Sensitivity NGS Kit (Agilent), according to the manufacturer's instructions. Alternatively, the specific PCR fragments were analyzed using Bioanalyzer 2100 with DNA1000 chip (lab-on-a-chip; Agilent), or separated on 2% agarose gels run at 120 V. Gels were imaged and band intensities were quantified using ImageJ. The expected non-skipped product has a size of 408 bp (KM155) and 475 bp (DM8036), and the skip product of 175 bp (KM155) or 242 bp (DM8036), respectively.
Immortalized human myoblasts from non-DMD donors (KM155) were cultured as described above in the Methods (as performed in Examples 1-5).
RNA was isolated with the TRIsure Isolation Reagent (Bioline) and chloroform extraction; isopropanol precipitation of RNA from the aqueous phase was performed as known to someone skilled in the art. […]

Oligonucleotides are written 5' to 3', each unit as a sugar letter and its base; * is a phosphorothioate linkage, no mark a phosphodiester; rarer units and linkages stand in square brackets, end groups in braces. Plain capitals give the bases only. m = 2'-O-methyl

Take “IGF-1-SO1861+500 nM M23D: IGF-1-SO1861 (DAR2.7) co-administered with 500 nM M23D”: the entries for the “exon 23 skip” value with dystrophin exon 23 (133 nM IGF-1-SO1861 + 500 nM M23D), in the series with dystrophin exon 23 (667 nM IGF-1-SO1861 + 500 nM M23D) and with dystrophin exon 23 (3333 nM IGF-1-SO1861 + 500 nM M23D) were 8%, 11% and 19%, respectively.

Take “DMD-ASO: 2′O-methyl-phosporothioate antisense oligonucleotide 5′-UCAAGGAAGAUGGCAUUUCU-3′ [SEQ ID NO: 1]; exon 51 skipping; same sequence and chemistry as drisapersen (antisense mU*mC*mA*mA*mG*mG*mA*mA*mG*mA*mU*mG*mG*mC*mA*mU*mU*mU*mC*mU; further chemistry not fully specified)”: in the series on dystrophin exon 51, the “improvement in potency with vs without SO1861-EMCH or SO1861-SC-Mal co-administration” value is given as “one to two orders of magnitude lower”. Also, the “% exon skipping” value in the series with dystrophin exon 51 (0.08 μM DMD oligo alone, Lab-on-a-chip) was found to be 0%; with dystrophin exon 51 (0.31 μM DMD oligo alone, Lab-on-a-chip) it was 0%; with dystrophin exon 51 (1.25 μM DMD oligo alone, Lab-on-a-chip), 0%; in the series on dystrophin exon 51 (5 μM DMD oligo alone, Lab-on-a-chip), 1%.

With “DMD-PMO: PMO 5′-CTCCAACATCAAGGAAGATGGCATTTCTAG-3′ [SEQ ID NO: 2]; exon 51 skipping; same sequence but not 5′-modifications as eteplirsen (all phosphorodiamidate morpholino (PMO))”, the “improvement in potency with vs without SO1861-EMCH or SO1861-SC-Mal co-administration” value in the series with dystrophin exon 51 is listed as “one to two orders of magnitude lower”. The “% exon skipping” value in the series with dystrophin exon 51 (0.08 μM DMD oligo alone, Femto) amounted to 0%; with dystrophin exon 51 (0.31 μM DMD oligo alone, Femto) it was 0%; in the series on dystrophin exon 51 (1.25 μM DMD oligo alone, Femto), 0%; in the series on dystrophin exon 51 (5 μM DMD oligo alone, Femto) it was 0%; with dystrophin exon 51 (20 μM DMD oligo alone, Femto), 4%.

On to “M23D: PMO 5′-GGCCAAACCTCGGCTTACCTGAAAT-3′ [SEQ ID NO: 3] that induces exon 23 skipping of mouse dystrophin (all phosphorodiamidate morpholino (PMO))”, for which the “exon 23 skip” value in the series with dystrophin exon 23 (500 nM M23D alone (0 nM conjugate)) is reported as 5%. Also, the “exon 23 skip activity” value with dystrophin exon 23 (500 nM M23D alone, 48 h) is on record as “no exon skip activity”.
